Data on five molecules can be found in patent publication US5352591A, “Aldolase enzyme process for making 5-azido-5-deoxy-hexulose-1-phosphate” (The Scripps Research Institute, priority 1993, dated 1994).

As usually defined, the Ki is the dissociation constant of the complex between target and ligand, obtained from inhibition or displacement.

The target in one assay is T1, α-L-Fucosidase (Homo sapiens, UniProt P04066).
T1 sequence (P04066 32-466): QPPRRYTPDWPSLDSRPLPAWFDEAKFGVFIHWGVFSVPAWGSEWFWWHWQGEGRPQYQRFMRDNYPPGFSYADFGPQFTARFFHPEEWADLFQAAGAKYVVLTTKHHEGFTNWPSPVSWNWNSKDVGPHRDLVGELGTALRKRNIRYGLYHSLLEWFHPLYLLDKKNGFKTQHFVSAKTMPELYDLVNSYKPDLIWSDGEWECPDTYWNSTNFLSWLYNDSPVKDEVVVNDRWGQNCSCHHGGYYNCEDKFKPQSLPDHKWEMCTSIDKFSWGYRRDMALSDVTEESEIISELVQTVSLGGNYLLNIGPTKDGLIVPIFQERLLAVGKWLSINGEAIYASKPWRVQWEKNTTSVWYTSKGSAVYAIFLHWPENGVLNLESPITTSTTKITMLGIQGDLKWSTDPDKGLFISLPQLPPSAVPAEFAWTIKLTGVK
The assay is described as follows: α-L-Fucosidase inhibition (fuc-pNP hydrolysis). It counts as biochemical. The protocol:
α-L-Fucosidase activity was measured by incubating the enzyme (0.005 Units) with fuc-pNP ([…]) in 0.4 ml of 50 mM acetate buffer, pH 5.5 for 20 minutes at 25° C. in the absence and presence of the azasugars of the present invention. The reaction was stopped by the addition of 0.8 ml of 2 mM glycine buffer, pH 10.5. The amount of formed p-nitrophenol was determined by optical density spectroscopy at a wavelength of 400 nm.

The subject of assay [1] is AIDS virus gp160 envelope protein precursor. The following applies: Walker et al., Proc. Natl. Acad. Sci. 1987; cited from earlier work.
The target of the next assay is β-Xylosidase (A. niger) (Aspergillus niger, UniProt O00089). The following applies: from Fleet et al. 1985; cited from earlier work.
β-Xylosidase (A. niger), sequence (O00089 27-804): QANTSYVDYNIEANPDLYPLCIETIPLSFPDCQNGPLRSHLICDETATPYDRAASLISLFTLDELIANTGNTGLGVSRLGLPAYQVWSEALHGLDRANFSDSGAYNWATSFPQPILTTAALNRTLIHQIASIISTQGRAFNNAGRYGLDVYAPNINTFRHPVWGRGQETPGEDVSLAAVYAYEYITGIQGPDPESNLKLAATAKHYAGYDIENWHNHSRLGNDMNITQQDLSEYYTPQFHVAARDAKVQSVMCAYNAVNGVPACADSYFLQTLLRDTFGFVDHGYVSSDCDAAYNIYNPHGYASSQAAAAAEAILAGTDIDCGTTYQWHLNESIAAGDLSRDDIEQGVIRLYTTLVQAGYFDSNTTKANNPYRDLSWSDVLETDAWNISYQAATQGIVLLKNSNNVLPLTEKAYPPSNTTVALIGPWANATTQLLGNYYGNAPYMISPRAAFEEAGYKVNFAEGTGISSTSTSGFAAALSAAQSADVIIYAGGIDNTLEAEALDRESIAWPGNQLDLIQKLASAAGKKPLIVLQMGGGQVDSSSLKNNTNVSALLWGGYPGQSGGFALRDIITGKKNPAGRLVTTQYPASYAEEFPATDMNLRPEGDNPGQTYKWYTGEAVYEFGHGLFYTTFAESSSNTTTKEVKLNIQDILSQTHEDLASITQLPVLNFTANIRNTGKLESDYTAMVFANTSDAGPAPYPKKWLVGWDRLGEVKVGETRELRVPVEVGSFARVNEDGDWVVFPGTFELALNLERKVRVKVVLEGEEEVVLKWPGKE
The subject of the next assay is glycosidases. As to conditions: Fleet et al., Tetrahedron Lett. 1985, 26, 3127; cited from earlier work.
Assay [2] has as its target T2, β-Galactosidase (E. coli) (Escherichia coli, UniProt P00722).
T2 construct: purchased Sigma
As to conditions: from Fleet et al. 1985; cited from earlier work.

In assay [3] the target is T3, α-Mannosidase (jack bean) (Canavalia ensiformis, UniProt C0HJB3).
T3 construct: purchased Sigma
T3 sequence (C0HJB3 1-562 limits assumed): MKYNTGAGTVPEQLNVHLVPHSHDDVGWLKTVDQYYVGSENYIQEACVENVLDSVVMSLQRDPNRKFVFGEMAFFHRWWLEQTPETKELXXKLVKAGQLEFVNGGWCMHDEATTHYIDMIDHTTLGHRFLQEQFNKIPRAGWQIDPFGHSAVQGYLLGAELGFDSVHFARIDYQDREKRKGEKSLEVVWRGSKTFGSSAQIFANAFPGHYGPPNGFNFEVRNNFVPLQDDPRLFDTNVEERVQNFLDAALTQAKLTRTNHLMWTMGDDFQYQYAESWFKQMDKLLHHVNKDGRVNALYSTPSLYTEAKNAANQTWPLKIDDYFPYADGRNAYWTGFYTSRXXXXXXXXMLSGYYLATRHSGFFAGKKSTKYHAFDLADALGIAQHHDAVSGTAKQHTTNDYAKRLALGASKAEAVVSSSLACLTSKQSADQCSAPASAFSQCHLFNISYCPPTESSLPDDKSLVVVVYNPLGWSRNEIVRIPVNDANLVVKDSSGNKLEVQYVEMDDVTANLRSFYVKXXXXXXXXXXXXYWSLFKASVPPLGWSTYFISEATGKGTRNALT
T3 sequence (C0HJB3 563-981 limits assumed): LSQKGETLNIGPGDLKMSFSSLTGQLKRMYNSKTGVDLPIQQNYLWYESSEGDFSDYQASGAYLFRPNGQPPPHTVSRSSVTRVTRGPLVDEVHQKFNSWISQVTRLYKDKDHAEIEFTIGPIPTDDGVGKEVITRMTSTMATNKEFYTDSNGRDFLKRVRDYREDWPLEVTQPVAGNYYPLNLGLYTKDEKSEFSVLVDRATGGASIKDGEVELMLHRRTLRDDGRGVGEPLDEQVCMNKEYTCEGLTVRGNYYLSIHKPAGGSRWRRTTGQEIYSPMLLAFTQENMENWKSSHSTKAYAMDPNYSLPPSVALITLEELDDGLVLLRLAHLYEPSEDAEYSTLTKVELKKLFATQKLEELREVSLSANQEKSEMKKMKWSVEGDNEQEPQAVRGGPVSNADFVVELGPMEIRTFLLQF
The following applies: from Fleet et al. 1985; cited from earlier work.

For assay [4], the target named is T4, α-Glucosidase (brewer yeast) (Saccharomyces cerevisiae, UniProt P53341).
T4 construct: purchased Sigma
T4 sequence (P53341 whole entry): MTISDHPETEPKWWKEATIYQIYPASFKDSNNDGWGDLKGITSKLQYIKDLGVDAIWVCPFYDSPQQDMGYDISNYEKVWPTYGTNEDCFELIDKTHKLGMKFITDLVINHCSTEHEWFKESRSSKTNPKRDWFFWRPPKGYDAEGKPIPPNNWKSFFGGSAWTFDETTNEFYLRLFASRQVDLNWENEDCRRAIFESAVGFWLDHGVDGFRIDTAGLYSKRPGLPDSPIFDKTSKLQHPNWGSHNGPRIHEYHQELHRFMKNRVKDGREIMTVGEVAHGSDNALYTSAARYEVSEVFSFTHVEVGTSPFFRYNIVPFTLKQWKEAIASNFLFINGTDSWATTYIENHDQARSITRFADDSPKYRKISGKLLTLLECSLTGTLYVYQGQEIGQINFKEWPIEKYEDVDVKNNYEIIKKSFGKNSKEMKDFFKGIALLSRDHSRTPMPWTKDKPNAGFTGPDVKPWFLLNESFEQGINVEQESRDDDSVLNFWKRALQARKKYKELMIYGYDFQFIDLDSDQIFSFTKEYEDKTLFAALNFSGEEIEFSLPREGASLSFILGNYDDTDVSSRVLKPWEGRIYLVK
The following applies: from Fleet et al., Tetrahedron Lett., 1985, 26:3127; cited from earlier work.

For assay [5], the target named is β-Glucosidase (almond). The following applies: from Fleet et al. 1985; cited from earlier work.
The target of assay [6] is β-Glucosidase (almond). The assay is described as follows: Inhibition of β-glucosidase. It counts as biochemical. As to conditions: pH 6.5. The protocol: The following solutions were prepared for enzymatic assay: 1. […] The assay enzyme solution was prepared by dissolving 20 milligrams of solid protein (4.8 Units/milligram solid) in 6 mL PIPES-NaOAc buffer solution. […] The following illustrates the procedure in detail.

The target of assay [7] is T3, α-Mannosidase (jack bean). The assay is described as follows: Inhibition of α-mannosidase. It counts as biochemical. The protocol:
(§1) The following solutions were prepared for enzymatic assay:
4. α-D-Mannosidase: 5 milligrams of solid protein were suspended in I mL of 3M ammonium sulfate [(NH4)2 SO4 ] and 0.1M zinc acetate (ZnOAc).
(§2) The following illustrates the procedure in detail.

Assay [8] deals with T2, β-Galactosidase (E. coli). The assay is described as follows: Inhibition of β-galactosidase. It counts as biochemical. As to conditions: at 1 mM; pH 6.5. The protocol:
as §1
6. β-D-Galactosidase: 0.5 milligrams of solid protein (345 Units/milligram) were dissolved in 1 mL PIPES-NaOAc buffer solution.
as §2

In assay [9] the target is T4, α-Glucosidase (brewer yeast). The assay is described as follows: Inhibition of α-glucosidase (Lineweaver-Burk, p-nitrophenol release). It counts as biochemical. The following applies: pH 6.5. The protocol: The following solutions were prepared for enzymatic assay: 1. […] The following illustrates the procedure in detail.

Entries after “also recorded” stand apart in the source; their conditions may differ. Read-outs that look alike come from different tables or passages of the source.

T2 sequence (P00722 2-1024 limits assumed): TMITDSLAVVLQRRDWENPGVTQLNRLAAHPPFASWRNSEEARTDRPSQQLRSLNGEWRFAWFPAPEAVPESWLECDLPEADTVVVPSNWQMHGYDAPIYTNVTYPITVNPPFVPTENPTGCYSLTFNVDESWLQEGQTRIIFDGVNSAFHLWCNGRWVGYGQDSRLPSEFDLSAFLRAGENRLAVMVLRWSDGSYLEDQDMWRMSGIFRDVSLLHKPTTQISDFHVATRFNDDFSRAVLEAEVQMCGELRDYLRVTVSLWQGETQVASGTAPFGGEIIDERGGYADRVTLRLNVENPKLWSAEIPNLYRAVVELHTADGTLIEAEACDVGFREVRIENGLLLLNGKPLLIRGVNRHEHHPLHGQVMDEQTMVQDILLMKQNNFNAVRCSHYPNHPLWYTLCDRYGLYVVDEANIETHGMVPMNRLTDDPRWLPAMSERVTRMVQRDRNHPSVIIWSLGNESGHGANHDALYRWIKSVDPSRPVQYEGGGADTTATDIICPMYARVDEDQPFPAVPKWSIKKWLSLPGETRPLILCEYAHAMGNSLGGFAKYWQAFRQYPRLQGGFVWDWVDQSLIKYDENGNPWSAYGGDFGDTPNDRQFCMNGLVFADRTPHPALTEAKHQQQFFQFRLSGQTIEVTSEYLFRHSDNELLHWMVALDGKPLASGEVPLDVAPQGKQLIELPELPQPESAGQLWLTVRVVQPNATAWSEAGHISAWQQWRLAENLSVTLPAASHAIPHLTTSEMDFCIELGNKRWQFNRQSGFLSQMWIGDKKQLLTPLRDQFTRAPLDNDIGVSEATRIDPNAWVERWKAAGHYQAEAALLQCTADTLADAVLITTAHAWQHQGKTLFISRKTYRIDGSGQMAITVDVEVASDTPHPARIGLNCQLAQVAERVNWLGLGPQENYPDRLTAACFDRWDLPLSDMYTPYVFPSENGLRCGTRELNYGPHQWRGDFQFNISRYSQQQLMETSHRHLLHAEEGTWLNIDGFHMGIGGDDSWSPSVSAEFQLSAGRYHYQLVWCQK

Turning to `C[C@@H]1OC(O)[C@@H](O)[C@H](O)[C@@H]1O` (stereo partly drawn) [L-fucose], the “type of inhibition of fucosidase” value on α-L-Fucosidase (versus fuc-pNP) is reported as “competitive inhibitor”. Also, the Ki at α-L-Fucosidase (versus fuc-pNP, 50 mM acetate buffer pH 5.5, 25° C., read-out: Ki, α-L-Fucosidase inhibition) turned out to be 300 µM.

With `OC1CN2CCC(O)C2C(O)C1O` (stereo not shown) [castanospermine, 1,6,7,8tetrahydroxyoctahydroindolizine], the “inhibition of processing of the AIDS virus gp160 envelope protein precursor (in words)” value in assay [1] is “inhibit the processing”.

`Oc1ccccc1` [phenol] returned an inhibition constant Ki on α-L-Fucosidase of 180 ± 20 µM. The “type of inhibition of fucosidase” value at α-L-Fucosidase (versus fuc-pNP) is “noncompetitive inhibitor”.

Take `OC[C@H]1N[C@H](CO)[C@@H](O)[C@@H]1O` [Compound X, (2R,5R)-dihydroxymethyl-(3R,4R)-dihydroxypyrrolidine]: the Ki on β-Xylosidase (A. niger) is 250 µM; in assay [4], 3.3 µM; at β-Glucosidase (almond) [5], 7.8 µM. For the same molecule, in the assay on glycosidases, the “inhibition against glycosidases, including α- and β-glucosidases and β-xylosidase (in words)” value was “broad spectrum of inhibition”. Moreover, the “Ki Values, β-Galactosidase (E. coli)” value in [2] was “No inhibition”. Also, the “Ki Values, α-Mannosidase (jack bean)” value in assay [3] was “no inhibitory activity; also recorded: no inhibition”.

For `OC[C@@H]1N[C@H](CO)[C@@H](O)[C@@H]1O` [Compound 2, (2R,5S)-dihydroxymethyl-(3R,4R)-dihydroxypyrrolidine], the Ki on β-Glucosidase (almond) [6] worked out at 19 µM; in [7] (pH 6.5), 3100 µM; in assay [9], 2.8 µM. The “inhibition of an α-mannosidase (in words)” value in assay [7] is “significant inhibition”. Moreover, the “Ki Values, β-Galactosidase (E. coli)” value in assay [8] was “No inhibition”.
